Laboratory results reported in PubChem BioAssay AID212 (DTP/NCI, 2004).
“And” between values parts separate entries of the source, which are not always exact repeats. Equal values may be shown once. Inconclusive results are not listed.

Test system: BDF1 mice, colon carcinoma 38 sc, T/C %
Assay: NCI In Vivo Anticancer Drug Screen. Data for tumor model Colon Carcinoma 38 (subcutaneous) in B6D2F1 (BDF1) mice
Settings: endpoint: median tumor weight (est.), schedule: Q07DX002 (ip), higher = larger tumour
How it was run: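 Compound antitumor activity was assessed in mice carrying transplantable tumors. Survival or tumor size was recorded, and each value is the treated-group measurement divided by that of the vehicle-treated control group.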

[1] = dose: 50.0 mg/kg/injection, vehicle: saline
[2] = dose: 100.0 mg/kg/injection, vehicle: saline
[3] = dose: 200.0 mg/kg/injection, vehicle: saline
[4] = dose: 400.0 mg/kg/injection, vehicle: saline

## CN(CCN(C)C(=O)CCOS(C)(=O)=O)C(=O)CCOS(C)(=O)=O
[1]
  T/C: 75 % of control and 94 % of control
[2]
  T/C: 48 % of control and 63 % of control
[3]
  T/C: 25 % of control and 43 % of control

## C/C=C(\C)c1cc(=O)c2c(C)cc3c(c2o1)C(=O)c1c(O)c(C2CC(C)(N(C)C)C(OC(C)=O)C(C)O2)cc(C2CC(N(C)C)C(O)C(C)O2)c1C3=O (configuration not stated)
dose: 0.31 mg/kg/injection, vehicle: saline
  T/C: 78 % of control
dose: 0.31 mg/kg/injection, vehicle: suspension in saline
  T/C: 84 % of control
dose: 0.62 mg/kg/injection, vehicle: saline
  T/C: 75 % of control and 92 % of control
dose: 0.62 mg/kg/injection, vehicle: suspension in saline
  T/C: 97 % of control
dose: 1.25 mg/kg/injection, vehicle: saline
  T/C: 97 % of control
dose: 1.25 mg/kg/injection, vehicle: suspension in saline
  T/C: 81 % of control
dose: 2.5 mg/kg/injection, vehicle: saline
  T/C: 116 % of control and 105 % of control
dose: 2.5 mg/kg/injection, vehicle: suspension in saline
  T/C: 90 % of control
dose: 5.0 mg/kg/injection, vehicle: saline
  T/C: 86 % of control
dose: 5.0 mg/kg/injection, vehicle: suspension in saline
  T/C: 97 % of control
dose: 10.0 mg/kg/injection, vehicle: saline
  T/C: 97 % of control
dose: 10.0 mg/kg/injection, vehicle: suspension in saline
  T/C: 120 % of control

## Nc1nc(F)nc2c1ncn2C1OC(COP(=O)(O)O)C(O)C1O (configuration not stated)
dose: 12.5 mg/kg/injection, vehicle: saline
  T/C: 184 % of control
[1]
  T/C: 87 % of control
[2]
  T/C: 116 % of control and 93 % of control
[3]
  T/C: 82 % of control and 101 % of control
[4]
  T/C: 76 % of control and 83 % of control

## NC(=O)c1ncn(C2OC(CO)C(O)C2O)c1O (configuration not stated)
dose: 25.0 mg/kg/injection, vehicle: Klucel (hydroxypropylcellulose) (HPC)
  T/C: 118 % of control
dose: 28.0 mg/kg/injection, vehicle: Klucel (hydroxypropylcellulose) (HPC)
  T/C: 51 % of control
dose: 50.0 mg/kg/injection, vehicle: Klucel (hydroxypropylcellulose) (HPC)
  T/C: 90 % of control
dose: 56.0 mg/kg/injection, vehicle: Klucel (hydroxypropylcellulose) (HPC)
  T/C: 48 % of control
dose: 112.0 mg/kg/injection, vehicle: Klucel (hydroxypropylcellulose) (HPC)
  T/C: 79 % of control
dose: 200.0 mg/kg/injection, vehicle: Klucel (hydroxypropylcellulose) (HPC)
  T/C: 114 % of control and 98 % of control
dose: 225.0 mg/kg/injection, vehicle: Klucel (hydroxypropylcellulose) (HPC)
  T/C: 68 % of control
dose: 400.0 mg/kg/injection, vehicle: Klucel (hydroxypropylcellulose) (HPC)
  T/C: 105 % of control and 107 % of control
dose: 450.0 mg/kg/injection, vehicle: Klucel (hydroxypropylcellulose) (HPC)
  T/C: 61 % of control
dose: 800.0 mg/kg/injection, vehicle: Klucel (hydroxypropylcellulose) (HPC)
  T/C: 75 % of control
dose: 900.0 mg/kg/injection, vehicle: Klucel (hydroxypropylcellulose) (HPC)
  T/C: 61 % of control

## NCCc1cc(O)c(O)c(O)c1
dose: 25.0 mg/kg/injection, vehicle: saline
  T/C: 71 % of control
[1]
  T/C: 62 % of control
[2]
  T/C: 82 % of control
[3]
  T/C: 80 % of control
[4]
  T/C: 110 % of control
dose: 800.0 mg/kg/injection, vehicle: saline
  T/C: 51 % of control
